Measurements taken from patent US8318813B2, “Method of treating binge eating disorder” (LCS Group, LLC, priority 2007, dated 2012).

How the values were obtained:
[1] = tested on: Patient with Comorbid Generalized Anxiety Disorder, Major Depression, and ADHD; test: Case report Patient 6: VYVANSE added to PAXIL
Protocol: The patient was maintained on PAXIL (paroxetine) 30 mg per day following a significant comorbid major depressive episode associated with anxiety symptoms, and a history consistent with Generalized Anxiety Disorder. […] However, after beginning a new job with more challenging responsibilities, the patient was unable to compensate for such deficits and a pattern of obsessive ruminations emerged, often involving work. In addition to perseverative and obsessive thinking, the patient experienced heightened anxiety and mild depressive symptoms, including fatigue, low mood, and amotivation, especially while at work. After discussing medication options and side effect concerns, VYVANSE was initiated to address underlying ADHD symptoms, which were felt to drive the patient's perseverative thinking, anxious ruminations, and low mood. […] PAXIL was maintained at 30 mg per day.

[2] = tested on: patient with Binge Eating Disorder, Medication-Induced Cognitive Problems, and Fatigue; test: Case report Example 5: VYVANSE added to existing regimen; format: in vivo, human
Excerpt: The patient previously has been treated with therapy and has had multiple prior medication trials, either discontinued due to lack of efficacy or side effects, including ZOLOFT (sertraline), CELEXA (citalopram), PROZAC (fluoxetine), LEXAPRO (escitalopram), WELLBUTRIN SR (bupropion HCl), NORTRIPTYLINE, ATIVAN (lorazepam), ABILIFY (aripiprazole), RISPERDAL (risperidone), SEROQUEL (quetiapine), LYRICA (pregabalin), and RITALIN (methylphenidate). Selective serotonin reuptake inhibitors exacerbated binge eating symptoms and caused problematic weight gain. For treatment of depression with comorbid anxiety, binge-eating, and weight-gain related to binge eating symptoms, the patient was maintained on a medication regimen that included TOPAMAX (topiramate) 175 mg in the morning and 200 mg at night, LAMICTAL (lamotrigine) 200 mg in the morning, CYTOMEL (liothyronine) 25 mcg per day, KLONOPIN (clonazepam) 0.25 mg at bed time, and NEURONTIN (gabapentin) 600 mg at bedtime. […] Given prior poor response to a number of different classes of medication trials, off-label use of VYVANSE was initiated at 30 mg each morning to target a constellation of symptoms, including symptoms of major depression, binge-eating disorder, fatigue, and concentration problems. VYVANSE was maintained at 30 mg each morning for weeks before being discontinued due to adverse effects. […] However, there appeared to be no benefit on the patient's depressed mood, amotivation, and feelings of hopelessness.
This case exemplifies the clinical benefit of lisdexamfetamine dimesylate on binge-eating symptoms and potentially on weight-gain related to binging (body weight was not obtained), though longer-term treatment was cut short by adverse effects at the 30 mg dosage form. Given the number of failed prior trials, off-label use of VYVANSE was clinically indicated, especially given the severity of binge eating behavior.

[3] = tested on: Patient with Major Depressive Disorders and Binge Eating Disorder; test: Case report Patient 1: lisdexamfetamine dimesylate added to ZOLOFT
[4] = tested on: Patient with Comorbid Depressive Disorders and Binge Eating Behavior; test: Case report Example 4: VYVANSE; format: in vivo, human
Excerpt: The patient also endorsed symptoms of ADHD, inattentive type, primarily around problems with organizing tasks, procrastination of work activities, and problems completing projects, though such ‘inattention’ symptoms were considered as clinically less detrimental than feeling chronically depressed, lacking motivation or interest in work or social activities, feeling fatigued and sometimes guilty, and having gained weight over several years due to ‘emotional eating’ behavior. The patient had received therapy in the past to address depressive episodes and associated life stressors, with modest benefit. The patient also described a history of ‘emotional eating’ that could occur at any time of day though more often in the late afternoons or early evenings. Such ‘emotional eating’ was often triggered by stressful situations or events, accompanied by an urge to eat, and would typically lead to excess consumption of carbohydrate-based foods. In recent years, the patient reported having gained over 10% body weight and noted a general trend toward increasing emotional eating and binging behavior. More severe binges occurred at least several times per month over a stretch of several years, though were much less common than ‘emotional eating’ that was milder in nature and occurred nearly daily. […] The patient was maintained on VYVANSE for 10 weeks at 50 mg per day. […] Symptoms of emotional eating were improved in the evenings as well, with less than one per week on average as compared to most evenings previously. […] The organization and execution of work-related tasks improved during the course of treatment as well.
The patient also began a trend of weight loss on account of decreased emotional eating and binging. The patient's ADHD was also clinically relevant, which is the primary reason VYVANSE was chosen as the initial medication treatment, though it was not the reason for which evaluation and treatment was sought and of secondary importance with regard to symptoms causing the patient difficulty and concern. […] Binge-eating behavior, largely taking the form of ‘self-soothing’ eating activity with potentially serious risks in this patient insofar as it was causing steady increased weight gain to the point of obesity), responded remarkably well to treatment with VYVANSE.

[5] = tested on: Patient with ADHD, Generalized Anxiety Disorder, and Obsessive-Compulsive Behavior; test: Case report Example 3: VYVANSE; format: in vivo, human
Excerpt: The patient is a non-geriatric adult diagnosed with a history of ADHD, inattentive type, and comorbid Generalized Anxiety Disorder, though had no prior treatment. Presenting ADHD symptoms included difficulty sustaining attention and attending to details, difficulty organizing tasks with tendencies toward avoidance, distractibility, and problems finishing tasks that have been initiated. Symptoms of Generalized Anxiety Disorder included frequent and intense ruminative worrying, feeling overly fatigued, muscle tension and intermittent problems with sleep. […] The patient was started on VYVANSE 30 mg in the morning, along with TRAZODONE 50 mg at bedtime. VYVANSE was maintained at 30 mg once daily in the morning for one week, followed by one week at 50 mg per day, and then 70 mg per day, taken in the morning. […] The patient maintained treatment on VYVANSE at 70 mg per day for 10 weeks; TRAZODONE 50 mg at bedtime was discontinued after 4 weeks as sleep patterns had sufficiently normalized. […] The patient previously felt little or no control around such worrying, ruminative behavior and speculated that it caused significant mental and even physical fatigue.
Stimulant medications have traditionally been associated with causing or worsening anxiety symptoms (for instance, being ‘anxiogenic’).

[6] = once per day dosing; cited from earlier work
[7] = tested on: Patient with Binge Eating Disorder and Major Depressive Disorders; test: Case report Patient 2: lisdexamfetamine dimesylate monotherapy

Fc1ccc([C@@H]2CCNC[C@H]2COc2ccc3c(c2)OCO3)cc1 [PAXIL, paroxetine]
depressive and anxiety symptoms ([1]; PAXIL 30 mg per day): rapidly stabilized

CC1(C)O[C@@H]2[C@@H](CO[C@@]3(COS(N)(=O)=O)OC(C)(C)O[C@@H]23)O1 [TOPAMAX, topiramate]
binge eating behavior ([2]; TOPAMAX 175 mg in the morning and 200 mg at night, clinically insufficient): helped reduce
tolerability ([2]; in vivo): poorly tolerated at higher doses due to cognitive side effects

CS(=O)(=O)O.CS(=O)(=O)O.C[C@@H](Cc1ccccc1)NC(=O)[C@@H](N)CCCCN [lisdexamfetamine dimesylate, (2S)-2,6-diamino-N-[(1S)-1-methyl-2-phenylethyl]hexanamide dimethanesulfonate]
depressive symptoms ([3]; 8 weeks of maintenance on 70 mg in addition to 100 mg ZOLOFT (sertraline)): full remission
binging days ([3]; for the 8 weeks at 70 mg daily along with 100 mg ZOLOFT): no more than 3
reduction of binging eating days per month ([3]; from approximately 12 or more to no more than 3 per month): approximately 75%
binge eating days per month ([3]; while taking lisdexamfetamine dimesylate, before approximately 12 or more per month): no more than 3 per month
adverse effects ([4]; 30 mg per day for two weeks, increased to 50 mg per day): without any adverse effects
emotional eating behavior in the afternoon ([4]; 50 mg daily): abrupt and sustained cessation
depressive symptoms ([4]; 10 weeks at 50 mg per day): significant amelioration
major binges ([4]; at any point while taking VYVANSE, before at least several times per month): no reported major binges
organization and execution of work-related tasks ([4]; during the course of treatment): improved
emotional eating in the evenings ([4]; on average, compared to most evenings previously): less than one
weight lost ([4]; over 2½ months of treatment): 6-7 pounds
adverse effect ([1]; 30 mg per day for one week, titrated to 50 mg per day): without adverse effect
ADHD, Generalized Anxiety Disorder, and Major Depressive Disorder symptoms ([1]; ensuing 9 weeks, with PAXIL 30 mg per day): improvement
weight loss ([1]; over 2 months of treatment, VYVANSE 50 mg per day with PAXIL 30 mg per day): 4-5%
mood, motivation and energy ([1]; with PAXIL 30 mg per day): improved
worrying ([1]; with PAXIL 30 mg per day): substantial reduction
compulsive ruminating and worrying ([5]; 70 mg per day): highly significant improvement
ability to sustain attention and attend to details, organize and finish projects, process information ([5]; 70 mg per day, compared to previous baseline function): significantly enhanced
inattention symptoms ([5]; after 10 weeks at 70 mg per day): only mildly affected
'wear off' during treatment of Generalized Anxiety Disorder symptoms ([5]; for the duration of the day): no problematic ‘wear off’
ADHD and Generalized Anxiety Disorder symptoms ([5]; within the first week, 30 mg in the morning with TRAZODONE 50 mg at bedtime): positive effect
time after administration for which significant effects have been demonstrated [6]: up to 12 hours
absolute binges per week ([2]; 30 mg each morning): fewer
binge-eating days per week ([2]; 30 mg each morning): fewer
depressed mood, amotivation, and feelings of hopelessness ([2]; 30 mg each morning): no benefit
fatigue and concentration throughout the day ([2]; 30 mg each morning): improvement
urge to binge ([2]; 30 mg each morning, during the time of treatment): notably reduced
adverse effects leading to discontinuation ([2]; 30 mg each morning, with TOPAMAX, LAMICTAL, CYTOMEL, KLONOPIN, NEURONTIN): excessive appetite suppression and visual blurring
ADHD symptoms ([7]; Patient 2): as effective as […] XR
triglyceride levels ([7]; end of 5 weeks of treatment, 271 mg/dL prior to treatment): 160 mg/dL
binging episodes ([7]; first 2 weeks of treatment, before at least two days per week): only once
depressive symptoms (depressed mood, interest level, sleep quality, physical fatigue) ([7]; monotherapy, about 10 weeks): overall improvement
total body weight lost ([7]; obese patient, about 10 weeks on lisdexamfetamine dimesylate (70 mg from day 3)): approximately 7%
binging episodes ([7]; subsequent 8 weeks of treatment): stopped entirely
